The series is described as follows: Safety and tolerability in the essential tremor clinical study. Type of series: in vivo, human. The note with it: 20 mg then 40 mg once a day, 14 days (formulation 5), emerging data.

This passage reports tolerability results from patent US12077502B2, “Formulations of T-type calcium channel modulators and methods of use thereof” (PRAXIS PRECISION MEDICINES, INC., priority 2019, dated 2024).

Turning to `CC(C)(C)NC(=O)CN1CCC(CNC(=O)c2cc(F)cc(Cl)c2)CC1` [compound of formula (I)], the tolerability entry is “well tolerated”.
